Earlier results on five molecules are cited in patent US20020064788A1, “Systematic approach to mechanism-of-response analyses” (priority 2000, published 2002).

The test system of series [1] is Na^+K^+-ATPase.
Series [2] relates to breast cancer. Particulars: women on digitalis, five years after mastectomy.
The subject of series [3] is Glioblastoma cell lines. Particulars: 30-60 nM, several Glioblastoma cell lines.
Series [4] relates to Jurkat (T-cell) cell lines.
In series [5] the test system is Daudi (B-cell) cell lines. Particulars: non-toxic doses.
The subject of series [6] is malignant and normal cells.
Series [7] has as its system androgen-dependent cells. Particulars: ouabain-induced decrease in Na+K+-ATPase activity.
Series [8] has as its system intracellular Ca^2+ levels; c-fos, c-jun, AP-1. Particulars: partial inhibition of Na+K+-ATPase.

Like-named read-outs stand apart in the source and are kept apart here.

For the molecule `CC/C(=C(\c1ccccc1)c1ccc(OCCN(C)C)cc1)c1ccccc1` [tamoxifen], the “inhibition of Na+K+-ATPase” value in series [1] is listed as “appears to inhibit”.
Turning to `C[C@H]1O[C@@H](O[C@H]2[C@@H](O)C[C@H](O[C@H]3[C@@H](O)C[C@H](O[C@H]4CC[C@@]5(C)[C@H](CC[C@@H]6[C@@H]5CC[C@]5(C)[C@@H](C7=CC(=O)OC7)CC[C@]65O)C4)O[C@@H]3C)O[C@@H]2C)C[C@H](O)[C@@H]1O` [Digitoxin], in series [1], the “inhibition of Na+K+-ATPase” value is “specific inhibitors”.
With digitalis, the “reduction in recurrence of breast cancer” value in series [2] is 9.6 fold. Also, the apoptosis result in series [3] is recorded as “induces apoptosis”; in series [4] (non-toxic doses, Jurkat), “induces apoptosis”; in series [5], “induces apoptosis”. Also, the cell adherence result in series [3] is “affects cell adherence”.
For the molecule `C[C@@H]1O[C@@H](O[C@H]2C[C@@H](O)[C@]3(CO)[C@H]4[C@H](O)C[C@]5(C)[C@@H](C6=CC(=O)OC6)CC[C@]5(O)[C@@H]4CC[C@]3(O)C2)[C@H](O)[C@H](O)[C@H]1O` [ouabain], the “inhibition of Na+K+-ATPase” value in series [1] is “specific inhibitors”. For the same molecule, the sensitization to irradiation entry in series [6] (malignant cells) is recorded as “sensitizes”; in series [6] (normal cells), “not”. In series [7], the “sensitivity of cells to cisplatin” value is recorded as “reduces sensitivity”. Besides, the “expression of c-fos, c-jun, and the transcription factor AP-1” value in series [8] is “increases”. The “intracellular Ca2+ levels” value in series [8] is listed as “increases”.

B1: Fas ligand: protein which binds to Fas receptor and strongly induces apoptosis (protein, UniProt P48023 130-281, looked up)
Tumor necrosis factor ligand …: QIGHPSPPPEKKELRKVAHLTGKSNSRSMPLEWEDTYGIVLLSGVKYKKGGLVINETGLYFVYSKVYFRGQSCNNLPLSHKVYMRNSKYPQDLVMMEGKMMSYCTTGQMWARSSYLGAVFNLTSADHLYVNVSELSLVNFEESQTFFGLYKL
Take B1: in series [4] (Jurkat cells, monitored by flow cytometry), the apoptosis result is listed as “induces apoptosis”.
